Results taken from patent US20150359884A1, “MULTI-PHOTON ISOMERISATION OF COMBRETASTATINS AND THEIR USE IN THERAPY” (priority 2011, published 2015).

Assays:
[1] = Fluorescence lifetimes in solvents, two-photon excitation with TCSPC; format: physicochemical
Experimental: Fluorescence lifetimes were determined using 2PE at 630 nm with the microscope TCSPC setup (overall time response of 25 ps fwhm) and produced the results shown in Table 1. […] Characterisation of the spectroscopic properties of these latter two compounds remains to be investigated further. […] In the very viscous environment provided by glycerol the lifetime increases further to 1180 ps. In the range of alkanols studied the lifetime is closely correlated with solvent viscosity as shown in the inset to FIG. 3. […] However it is clear that the measured lifetime has the potential to report on cellular environments in FLIM studies. For E-CA4F similar trends are observed, but the overall differences in both lifetimes and quantum yields over the range of solvents are rather less than for E-CA4. The fluorescence lifetimes of E-CA4F are confined to a narrower range having values ranging from 440 ps in methanol through 740 ps in hexane to 1070 ps in glycerol. The more pronounced solvent dependence for E-CA4 no doubt reflects the more polar nature of the molecule compared with E-CA4F. The relative polarities may be judged from the partition coefficients (P) calculated according to the method of Brown et al..

[2] = Fluorescence quantum yields in solvents, UV one-photon excitation; format: physicochemical; conditions: 20° C., 290-300 nm excitation
Experimental: Absorption spectra were measured in either a Perkin Elmer Lambda 25 or 950 spectrophotometer. Fluorescence measurements were made with either a Spex Fluoromax or Varian Cary Eclipse spectrofluorimeter using the spectral correction curves supplied by the manufacturers. Fluorescence quantum yields with UV (one-photon) excitation were determined using either 2-aminopyridine (Φref 0.6 [7]) or 9-chloroanthracene (Φref 0.50 in dichloromethane, determined here relative to 9,10-diphenylanthracene in cyclohexane (Φref 0.97) and anthracene in ethanol (Φref 0.28 [8]) as standards. Fluorescence quantum yields were determined from the relative slopes of plots of integrated fluorescence intensity versus (1-10^−A) for samples having absorbance A≦0.1. The square of the refractive index (n^2) correction was applied when sample and reference compounds were in different solvents. Irradiation of the samples was minimized by the use of narrow excitation slits to reduce simultaneous photoisomerization.
The fluorescence quantum yields for E-CA4F were generally somewhat higher than for E-CA4.

[3] = Two-photon absorption cross section using reference fluorophore 9-chloroanthracene; format: physicochemical; conditions: at 620 nm, DCM
Text: (§1) Cell images were overlaid using Adobe Photoshop CS3.
Published cross sections for two photon absorption (σ2, the probability of an absorption process or photon interaction) typically show large variations depending on the method of measurement, using either the Z-scan method or a reference fluorophore, and the power range and pulse duration of the laser used for excitation. We have attempted to determine values of σ2 for E-CA4 and E-ACA4 using a reference fluorophore. 9-Chloroanthracene (9CIA) was selected as a standard fluorophore with an appropriate fluorescence spectrum and for which 2PE cross-sections are available. The values of σ2 at 620 nm for E-CA4 and E-CA4F in DCM were determined to be 2.1±0.5 and 2.75±0.6 GM units respectively. […] Values of σ2 at 620 nm for E-ACA and E-DMAC were both 5.7±1.2. These larger values may be consistent with some charge transfer character of the excitation of these compounds.

[4] = tested on: human umbilical vein endothelial cells (HUVECs); experiment: Fluorescence lifetime imaging (FLIM) of uptake and intracellular concentration in HUVECs; format: cell-based
Text: as §1
Z-CA4 and analogues exert their anticancer activity by preventing the process of angiogenesis in which a growing tumour is supplied with new vasculature for the supply of nutrients via the bloodstream. We have therefore studied interactions between combretastatins and cultured HUVECs. […] Nevertheless it was possible to obtain images of cells after uptake upon E-combretastatin addition to the supporting medium at relatively low concentrations. […] In addition there are some punctate structures apparent in the images that appear to correlate with lipid droplets identified by Nile Red staining of the same cell. At 37° C. exact co-localization of the sequential images of combretastatin fluorescence and Nile Red labelled lipid droplets, obtained using the two different imaging systems attached to the microscope, is not possible because of the Brownian motion and the occasional rapid saltation of these structures that occur as a result of their transport upon the cellular microtubule network. The fluorescence lifetime distribution of intracellular E-CA4F observed in this cell simultaneously labelled with Nile Red peaks at ˜950 ps. […] This confirms that Nile Red and E-CA4F exist in the same space and are able to come close enough to allow FRET. The long lifetime of E-CA4F fluorescence in the HUVEC cell indicates a viscous environment for E-CA4F within the cell which is consistent with a lipidic location such as a membrane or lipid droplet. Since the fluorescence lifetimes and quantum yields of E-CA4F are directly related, it is possible to combine the FI and lifetime images to calculate the concentration distribution, using a series of standard solutions (DMSO was the chosen solvent with τ 810 ps). […] It is therefore clear that E-CA4F (and other compounds in FIG. 10) are taken up by their target endothelial cell and accumulated by up to 200 times the extracellular concentration of the compound. Similar images have been obtained that show corresponding uptake of E-CA4F within HUVECs from solutions containing as little as 1 μM E-CA4F.

HeLa cells = experiment: Fluorescence lifetime imaging (FLIM) of uptake and intracellular concentration in HeLa cells
Experimental: Both HeLa and Chinese hamster ovary (CHO) cells were obtained from the European Collection of Cell Cultures. HeLa cells were cultured in MEM medium (Gibco) containing 10% foetal calf serum, penicillin (100 units/mL), streptomycin (100 μg/mL) and glutamine (2 mM). CHO cells were cultured in DMEM (Gibco) with the same additions as for the HeLa cells. For microscopy the adherent cell cultures were grown in 35 mm diameter glass-bottom culture dishes with optical quality glass (MatTek Corporation) and incubated at 37° C. in a humidified atmosphere containing 5% CO2. Human umbilical vein endothelial cells (HUVECs) were obtained from TCS Cellworks. HUVECs were sub-cultured in basal medium (TCS Cellworks) supplemented with antibiotic supplement/amphotericin-B, following the detailed guidelines provided by TCS Cellworks.
The fluorescence lifetime imaging system with multiphoton excitation employed lasers for multiphoton excitation consisting of a Ti:Sapphire laser, tuneable between 700 and 1000 nm and providing ca 180 fs pulses at 76 MHz, and an optical parametric oscillator (OPO) pumped by a second Ti:Sapphire laser source. Using the doubled idler output of the OPO, useful energies (>200 mW) could be obtained between 550 and 640 nm. Samples were excited on the stage of Nikon TE2000U inverted microscope using a water immersion ×60 objective of NA 1.2. Using the various microscope ports it was possible to record the fluorescence in a number of ways. The fluorescence signal at one port was relayed to a spectrometer (Acton 275) and CCD setup (Andor iDUS) so that emission spectra and intensities could be recorded. Alternatively the fluorescence signal could be routed via a second port to a time-correlated single photon counting (TCSPC) system (Becker and Hickl SPC-830) allowing fluorescence lifetime measurements and fluorescence lifetime imaging (FLIM), using Becker and Hickl software (SPCImage) for analysis. In FLIM mode the fluorescence was isolated by a suitable narrowband interference filter (400IU25 together with BG3 (Comar)). […] Two photon cross sections were determined using a reference fluorophore as a two photon standard as described by Mathai et al., employing published values of the two-photon cross section for 9-chloroanthracene.
Images of intracellular distribution of E-combretastatins in cell monolayers were obtained using fluorescence lifetime imaging, in which the rastered excitation laser beam dwells on each pixel for a few milliseconds and at each position records a nanosecond fluorescence lifetime decay curve using the time-correlated single photon counting method. […]
Quantification of fluorophore concentration from intensity measurements is often difficult.

[5] = DCM, 20° C., two-photon excitation 620-630 nm, ne = non-exponential
[6] = DMSO, 20° C., two-photon excitation 620-630 nm
[7] = EtOH, 20° C., two-photon excitation 620-630 nm, ne = non-exponential
[8] = Ethylene glycol, 20° C., two-photon excitation 620-630 nm, ne = non-exponential
[9] = Hexane, 20° C., two-photon excitation 620-630 nm
[10] = MeCN, 20° C., two-photon excitation 620-630 nm, ne = non-exponential
[11] = MeOH, 20° C., two-photon excitation 620-630 nm, ne = non-exponential
[12] = HUVEC, 5 μM in medium, 37° C., 60 min

Row | SMILES | Fluorescence lifetime τ [1, 5] | Fluorescence lifetime τ [1, 6] | Fluorescence lifetime τ [1, 7] | Fluorescence lifetime τ [1, 8] | Fluorescence lifetime τ [1, 9] | Fluorescence lifetime τ [1, 10] | Fluorescence lifetime τ [1, 11] | Fluorescence quantum yield φ ([2]; DCM) | Two photon absorption cross section σ2 [3] | also measured
1 | COc1ccc(/C=C/c2cc(OC)c(OC)c(OC)c2)cc1F [E-CA4F, (E)-1-(3′,4′,5′-trimethoxyphenyl)-2-(3″-fluoro-4″-methoxyphenyl)ethene] | 0.61 ns | 0.81 ns | 0.48 ns | 0.76 ns | 0.75 ns | 0.59 ns | 0.44 ns | 0.23 | 2.75±0.6 GM units | Fluorescence lifetime τ ([1]; DMSO standard solutions): 810 ps; Fluorescence lifetime τ ([1]; Glycerol, 20° C., two-photon excitation 620-630 nm, ne = non-exponential): 1.07 ns; Fluorescence lifetime ([1]; glycerol): 1070 ps; Fluorescence lifetime ([1]; hexane): 740 ps; Fluorescence lifetime ([1]; methanol): 440 ps; Fluorescence quantum yield φ ([2]; DMSO): 0.29; Fluorescence quantum yield φ ([2]; EtOH): 0.17; Fluorescence quantum yield φ ([2]; Ethylene glycol): 0.29; Fluorescence quantum yield φ ([2]; Glycerol): 0.42; Fluorescence quantum yield φ ([2]; Hexane): 0.31; Fluorescence quantum yield φ ([2]; MeCN): 0.2; Fluorescence quantum yield φ ([2]; MeOH): 0.15; Accumulation relative to the extracellular concentration ([4]; HUVEC endothelial cells): up to 200 times; Intracellular concentration in many parts of the cell [4, 12]: 500 µM; Intracellular concentration in the lipid droplets, peak [4, 12]: over 1 mM; Intracellular concentration as times that added to the surrounding medium ([4]; HUVEC, 5 μM in medium, many parts of the cell): 100 times; Intracellular distribution ([4]; HUVEC, 5 μM, 37° C., 60 min): taken up into the cytoplasmic region of the cell, but excluded from the cell nucleus
2 | COc1cc(C=Cc2ccc(C#N)cc2)cc(OC)c1OC [E-CNCA4, 4-[2-(3,4,5-trimethoxyphenyl)vinyl]benzonitrile] |  | 0.71 ns |  |  |  |  |  |  |  | Intracellular distribution (HeLa cells): accumulates mainly within the cell cytoplasm and is excluded from the cell nucleus
3 | COc1cc(/C=C/c2ccc(N(C)C)cc2)cc(OC)c1OC [E-DMAC, (E)-1-(3′,4′,5′-Trimethoxyphenyl)-2-(4″-dimethylamino-phenyl)ethene] | ne | 0.36 ns | ne | ne | 0.41 ns | ne | ne | 0.11 | 5.7±1.2 GM units | 
